Active and inactive are the calls of the source. For most assays here, no stated cut-off is given here; in the data, actives have a measured EC50 and inactives only a lower limit.
Key:
BJ [1] = experiment: cytotoxicity toward BJ-TERT fibroblasts, dose response, cell-based, RAS-independent, luminescence (AID 1933); assay type: functional; details: Homo sapiens
[2] = inhibitors of firefly luciferase expression or activity, dose response, H4 neuroglioma cells, luminescence (AID 1990); assay type: functional, cell-based
cells = assay type: functional, cell-based
[3] = cytotoxicity toward DRD oncogenic fibroblasts, dose response, cell-based, non-viral oncogenic, luminescence (AID 1934); assay type: functional; details: Homo sapiens
[4] = inhibitors of SNCA 5'UTR-driven reporter translation, confirmation, H4 neuroglioma cells, luminescence (AID 1988); assay type: functional, cell-based
[5] = Luminescence Cell-Based Dose Response HTS to Identify Inhibitors of 5'UTR Stem-Loop Driven Prion Protein mRNA Translation in H4 Neuroglioblastoma Cells. [Related pubchem assays: 1827 (Project Summary), 1813 (Primary HTS)]; assay type: functional
BJ [6] = experiment: cells; assay type: functional, cell-based; details: Homo sapiens
BJ [7] = experiment: cytotoxicity toward BJ-TERT-LT-ST fibroblasts, dose response, cell-based, RAS-independent, luminescence (AID 1935); assay type: functional; details: Homo sapiens;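 further: BJ fibroblasts immortalized with TERT plus LT and ST oncogenes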
[8] = luciferase reporter signal reduction – luminescence, H4-C neuroglioblastoma cells, dose response (AID 2458); assay type: functional, cell-based;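 further: H4 neuroglioblastoma cells stably carrying a luciferase reporter gene fusion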
BJ [9] = experiment: cytotoxicity toward Ras-transformed BJeLR fibroblasts, dose response, cell-based, alamar blue fluorescence, cherrypicked samples (AID 2631); assay type: functional; details: Homo sapiens;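 further: confirmatory dose-response assay in RAS-dependent BJ fibroblasts engineered with TERT, LT and ST, with cytotoxicity read by fluorescence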
[10] = inhibitors of SNCA 5'UTR-driven translation, confirmation, luminescence, H4 neuroglioblastoma cells, dose confirmation (AID 2454); assay type: functional, cell-based;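 further: H4 neuroglioblastoma cells carrying an alpha-synuclein 5'UTR luciferase reporter; potency for inhibition of the luciferase signal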
Troponin, cardiac muscle = Troponin, cardiac muscle (Homo sapiens, UniProt P19429+P45379+P63316); experiment: Fluorescence-based biochemical high throughput dose response assay for activators of the calcium sensitivity of cardiac Regulated Thin Filaments (RTF). [Related pubchem assays (depositor defined):AID493008, AID493018, AID504382, AID504383]; assay type: protein-complex assay
Coagulation factor XII = molecular target: T1, Coagulation factor XII (Homo sapiens, UniProt P00748); assay type: functional;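 further: activated factor XIIa alpha cleaving a fluorogenic AMC peptide substrate; inhibitor potency from loss of enzyme activity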
T1 sequence (P00748 whole entry): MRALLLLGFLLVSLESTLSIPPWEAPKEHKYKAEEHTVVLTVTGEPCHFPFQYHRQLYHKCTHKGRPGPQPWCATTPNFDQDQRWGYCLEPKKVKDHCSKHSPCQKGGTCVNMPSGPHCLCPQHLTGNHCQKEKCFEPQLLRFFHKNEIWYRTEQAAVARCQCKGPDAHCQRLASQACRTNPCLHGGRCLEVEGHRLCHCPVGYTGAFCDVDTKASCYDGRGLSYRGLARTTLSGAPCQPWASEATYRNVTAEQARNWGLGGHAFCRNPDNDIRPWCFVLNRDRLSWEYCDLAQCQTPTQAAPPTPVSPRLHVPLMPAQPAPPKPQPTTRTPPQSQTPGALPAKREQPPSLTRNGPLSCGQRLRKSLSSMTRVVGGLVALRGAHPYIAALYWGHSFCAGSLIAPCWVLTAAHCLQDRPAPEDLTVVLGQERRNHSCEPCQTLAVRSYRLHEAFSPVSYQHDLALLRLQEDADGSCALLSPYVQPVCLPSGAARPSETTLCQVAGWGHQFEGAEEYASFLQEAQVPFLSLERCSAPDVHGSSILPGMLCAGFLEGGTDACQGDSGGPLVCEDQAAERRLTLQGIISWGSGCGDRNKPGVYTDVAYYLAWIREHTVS

Prothrombin = Prothrombin (Homo sapiens, UniProt P00734); experiment: Thrombin 1536 HTS Dose Response Confirmation. [Related pubchem assays: 1046 (Thrombin 1536 HTS; hits were confirmed in this assay)]; assay type: functional
HEK293 = experiment: inhibitors of LMP1-driven NF-kB reporter, dose response, cell-based, HEK293, luciferase, cherry-pick (AID 588343); assay type: functional; details: Homo sapiens
Beta-galactosidase = Beta-galactosidase (Escherichia coli, UniProt Q8VNN2); experiment: Dose response counterscreen for EBI2 assay utilizing the enzyme, b-galactosidase.; assay type: functional
Sequence of Beta-galactosidase (Q8VNN2 whole entry): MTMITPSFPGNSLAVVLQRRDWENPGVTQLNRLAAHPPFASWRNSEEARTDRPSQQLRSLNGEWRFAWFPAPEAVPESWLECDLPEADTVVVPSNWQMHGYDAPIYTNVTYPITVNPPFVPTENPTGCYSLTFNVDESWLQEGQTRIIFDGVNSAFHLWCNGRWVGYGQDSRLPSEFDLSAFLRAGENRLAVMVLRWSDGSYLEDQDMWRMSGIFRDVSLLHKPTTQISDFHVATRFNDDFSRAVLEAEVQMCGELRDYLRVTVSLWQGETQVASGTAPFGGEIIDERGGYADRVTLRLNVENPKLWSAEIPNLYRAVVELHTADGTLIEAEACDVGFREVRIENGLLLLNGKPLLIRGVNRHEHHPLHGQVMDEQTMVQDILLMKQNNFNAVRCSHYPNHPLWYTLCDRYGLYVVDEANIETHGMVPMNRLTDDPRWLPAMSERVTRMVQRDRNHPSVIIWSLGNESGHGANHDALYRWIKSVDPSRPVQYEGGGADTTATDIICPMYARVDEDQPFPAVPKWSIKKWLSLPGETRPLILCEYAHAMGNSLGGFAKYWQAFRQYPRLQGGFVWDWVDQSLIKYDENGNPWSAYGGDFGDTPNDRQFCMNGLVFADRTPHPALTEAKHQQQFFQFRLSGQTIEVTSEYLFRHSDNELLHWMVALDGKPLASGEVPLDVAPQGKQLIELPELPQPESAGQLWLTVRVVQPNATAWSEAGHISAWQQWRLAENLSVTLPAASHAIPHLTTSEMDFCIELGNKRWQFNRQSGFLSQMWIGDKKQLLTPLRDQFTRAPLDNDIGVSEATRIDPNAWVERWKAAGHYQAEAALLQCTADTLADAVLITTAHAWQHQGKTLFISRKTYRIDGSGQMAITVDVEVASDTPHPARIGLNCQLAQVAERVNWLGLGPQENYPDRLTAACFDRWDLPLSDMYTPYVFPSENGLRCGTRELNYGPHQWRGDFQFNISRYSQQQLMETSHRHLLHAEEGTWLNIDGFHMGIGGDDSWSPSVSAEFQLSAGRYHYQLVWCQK

[11] = cytotoxicity toward NIH3T3 fibroblasts, dose response, counter-screen, cell-based, ATP luminescence, mouse fibroblasts (AID 2010); assay type: functional;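 further: cells exposed to compound for about 90 hours before reading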
[12] = molecular target: Peroxisome proliferator-activated receptor gamma/Nuclear receptor coactivator 1 (Homo sapiens, UniProt P37231); experiment: TR-FRET dose response biochemical High Throughput Screening assay for agonists of the steroid receptor coactivator 1 (SRC-1) recruitment by the peroxisome proliferator-activated receptor gamma (PPAR gamma): non-selective agonists. [Related pubchem assays (depositor defined):AID1300, AID1808, AID504735, AID631]; assay type: protein assay
Sequence of Peroxisome proliferator-activated receptor gamma/Nuclear receptor coactivator 1 (P37231 whole entry): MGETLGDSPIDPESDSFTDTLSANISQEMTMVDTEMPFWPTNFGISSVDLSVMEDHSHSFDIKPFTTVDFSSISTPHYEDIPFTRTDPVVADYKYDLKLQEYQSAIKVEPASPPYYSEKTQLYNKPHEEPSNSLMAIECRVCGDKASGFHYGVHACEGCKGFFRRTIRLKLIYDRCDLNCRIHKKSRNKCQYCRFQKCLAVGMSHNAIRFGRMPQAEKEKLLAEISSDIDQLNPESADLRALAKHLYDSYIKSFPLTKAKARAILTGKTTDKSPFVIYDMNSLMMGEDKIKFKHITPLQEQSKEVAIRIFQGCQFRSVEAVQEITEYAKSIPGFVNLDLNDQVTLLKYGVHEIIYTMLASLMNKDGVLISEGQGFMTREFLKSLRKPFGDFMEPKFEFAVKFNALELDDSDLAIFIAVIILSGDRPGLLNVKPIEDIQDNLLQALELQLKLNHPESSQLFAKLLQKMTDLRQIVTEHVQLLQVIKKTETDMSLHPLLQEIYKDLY
Sequence of Peroxisome proliferator-activated receptor gamma/Nuclear receptor coactivator 1 (Q15788 whole entry, further chain): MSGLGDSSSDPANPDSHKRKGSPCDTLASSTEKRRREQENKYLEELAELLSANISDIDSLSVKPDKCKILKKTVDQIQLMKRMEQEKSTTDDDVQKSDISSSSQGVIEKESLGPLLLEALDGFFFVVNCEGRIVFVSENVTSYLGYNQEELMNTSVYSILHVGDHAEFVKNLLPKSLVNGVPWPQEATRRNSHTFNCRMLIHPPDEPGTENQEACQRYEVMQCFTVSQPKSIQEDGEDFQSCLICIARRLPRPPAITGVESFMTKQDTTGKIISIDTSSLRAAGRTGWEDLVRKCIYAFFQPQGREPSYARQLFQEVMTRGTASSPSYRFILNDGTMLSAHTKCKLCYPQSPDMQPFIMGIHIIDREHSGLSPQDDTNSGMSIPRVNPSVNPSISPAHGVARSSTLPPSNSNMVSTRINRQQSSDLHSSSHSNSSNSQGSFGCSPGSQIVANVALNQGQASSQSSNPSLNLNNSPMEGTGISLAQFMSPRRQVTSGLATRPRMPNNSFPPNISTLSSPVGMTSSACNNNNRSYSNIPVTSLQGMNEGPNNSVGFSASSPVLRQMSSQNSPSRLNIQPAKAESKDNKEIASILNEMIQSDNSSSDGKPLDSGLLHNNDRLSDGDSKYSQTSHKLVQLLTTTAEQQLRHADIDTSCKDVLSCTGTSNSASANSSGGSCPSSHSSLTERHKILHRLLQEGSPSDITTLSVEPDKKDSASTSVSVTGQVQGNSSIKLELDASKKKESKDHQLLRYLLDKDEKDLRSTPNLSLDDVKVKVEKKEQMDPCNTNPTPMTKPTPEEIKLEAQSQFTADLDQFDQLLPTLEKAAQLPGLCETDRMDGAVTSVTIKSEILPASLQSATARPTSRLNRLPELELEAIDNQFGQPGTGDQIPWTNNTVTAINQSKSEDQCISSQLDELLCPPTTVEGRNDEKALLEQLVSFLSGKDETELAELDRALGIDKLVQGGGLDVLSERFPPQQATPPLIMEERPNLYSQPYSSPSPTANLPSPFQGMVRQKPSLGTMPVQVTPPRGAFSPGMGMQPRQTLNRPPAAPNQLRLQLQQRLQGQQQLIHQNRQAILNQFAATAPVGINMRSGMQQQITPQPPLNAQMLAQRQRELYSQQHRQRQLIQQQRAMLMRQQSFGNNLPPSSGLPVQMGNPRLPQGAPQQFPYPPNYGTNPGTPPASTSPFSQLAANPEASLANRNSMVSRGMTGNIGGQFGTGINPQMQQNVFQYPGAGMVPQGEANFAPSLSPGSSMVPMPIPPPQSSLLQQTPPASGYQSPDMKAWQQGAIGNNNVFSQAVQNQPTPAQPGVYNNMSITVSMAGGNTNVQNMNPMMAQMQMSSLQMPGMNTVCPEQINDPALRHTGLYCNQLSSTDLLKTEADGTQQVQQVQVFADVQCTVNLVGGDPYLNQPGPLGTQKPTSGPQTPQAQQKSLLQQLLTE

[13] = inhibitors of intracellular T. cruzi replication, confirmation, NIH3T3 host cells, beta-gal luminescence (AID 2044); assay type: functional, cell-based;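 further: intracellular parasites grown in NIH/3T3 mouse fibroblasts as host cells; luminescent beta-galactosidase reporter signal from transgenic T. cruzi replicating inside host cells; inhibitors lower the luminescence signal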
[14] = molecular target: Peroxisome proliferator-activated receptor gamma/Nuclear receptor coactivator 2 (Homo sapiens, UniProt P37231); experiment: (§1) TR-FRET dose response biochemical High Throughput Screening assay for agonists of the steroid receptor coactivator 2 (SRC-2) recruitment by the peroxisome proliferator-activated receptor gamma (PPAR gamma): non-selective agonists. [Related pubchem assays: 1297, 1032 ]; assay type: functional
Sequence of Peroxisome proliferator-activated receptor gamma/Nuclear receptor coactivator 2 (P37231 whole entry): as the sequence (P37231 whole entry) above
Sequence of Peroxisome proliferator-activated receptor gamma/Nuclear receptor coactivator 2 (Q15596 whole entry, further chain): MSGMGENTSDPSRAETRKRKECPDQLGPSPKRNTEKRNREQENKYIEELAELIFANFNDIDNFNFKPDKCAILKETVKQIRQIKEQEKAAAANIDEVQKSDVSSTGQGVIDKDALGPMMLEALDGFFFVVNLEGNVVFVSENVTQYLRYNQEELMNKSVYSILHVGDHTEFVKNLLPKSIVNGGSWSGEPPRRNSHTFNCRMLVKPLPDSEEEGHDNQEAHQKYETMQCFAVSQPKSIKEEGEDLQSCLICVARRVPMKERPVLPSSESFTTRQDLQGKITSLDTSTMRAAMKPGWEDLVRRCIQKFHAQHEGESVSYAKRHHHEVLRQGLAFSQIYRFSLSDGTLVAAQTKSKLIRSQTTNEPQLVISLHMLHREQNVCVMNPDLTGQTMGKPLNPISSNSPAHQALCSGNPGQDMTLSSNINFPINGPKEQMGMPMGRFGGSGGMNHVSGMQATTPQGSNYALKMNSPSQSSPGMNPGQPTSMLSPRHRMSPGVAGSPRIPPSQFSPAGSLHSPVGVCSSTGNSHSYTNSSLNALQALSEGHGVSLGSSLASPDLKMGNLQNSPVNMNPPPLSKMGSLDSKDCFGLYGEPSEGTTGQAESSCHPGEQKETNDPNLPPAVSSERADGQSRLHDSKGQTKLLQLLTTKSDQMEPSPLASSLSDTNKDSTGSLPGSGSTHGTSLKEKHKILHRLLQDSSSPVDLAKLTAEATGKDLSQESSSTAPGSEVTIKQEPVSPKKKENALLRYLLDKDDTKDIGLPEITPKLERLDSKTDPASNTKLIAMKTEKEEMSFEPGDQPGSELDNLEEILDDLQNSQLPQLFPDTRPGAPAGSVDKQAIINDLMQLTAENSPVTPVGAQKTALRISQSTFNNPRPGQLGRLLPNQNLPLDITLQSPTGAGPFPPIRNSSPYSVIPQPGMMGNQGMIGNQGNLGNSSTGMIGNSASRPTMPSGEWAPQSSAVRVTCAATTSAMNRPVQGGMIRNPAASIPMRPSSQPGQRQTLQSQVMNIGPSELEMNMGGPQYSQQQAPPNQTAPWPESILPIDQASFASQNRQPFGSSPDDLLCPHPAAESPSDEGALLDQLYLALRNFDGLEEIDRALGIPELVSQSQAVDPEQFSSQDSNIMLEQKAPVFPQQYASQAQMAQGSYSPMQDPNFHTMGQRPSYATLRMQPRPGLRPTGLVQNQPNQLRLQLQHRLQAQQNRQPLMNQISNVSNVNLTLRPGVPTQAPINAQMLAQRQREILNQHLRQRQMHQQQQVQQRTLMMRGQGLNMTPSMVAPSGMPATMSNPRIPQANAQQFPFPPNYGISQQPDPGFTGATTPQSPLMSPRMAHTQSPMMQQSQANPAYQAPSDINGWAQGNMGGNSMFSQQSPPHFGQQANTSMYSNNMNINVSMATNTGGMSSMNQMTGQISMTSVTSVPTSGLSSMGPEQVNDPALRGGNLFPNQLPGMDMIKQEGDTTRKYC

[15] = molecular target: Peroxisome proliferator-activated receptor gamma/Nuclear receptor coactivator 3 (Homo sapiens, UniProt P37231); experiment: as §1, with “3 (SRC-3)” for “2 (SRC-2)”, “1301 (Confirmation screen.), 1048 (Primary screen.)]” for “1297, 1032 ]”; assay type: functional
P388/ADR = experiment: cells; assay type: functional; details: Mus musculus
P388 = experiment: cells; assay type: functional; details: Mus musculus
SN12K1 = experiment: cells; assay type: functional; details: Homo sapiens
[16] = Luminescence Cell-Based Dose Retest to Confirm Inhibitors of Cancer Stem Cells. [Related pubchem assays (depositor defined):AID2717, AID2721]; assay type: functional; details: Homo sapiens

Which EC50 (BJ [1]) does the source give for COc1ccc(S(=O)(=O)N2c3cc(Cl)ccc3Oc3nc4ccccc4nc32)cc1 here?
The EC50 was 6.91 µM (inconclusive).

What about the EC50 [2] of the same molecule?
Its EC50 is 3.64 µM (inconclusive).

And the EC50 (cells)?
Its EC50 is > 12 µM (not active).

And the EC50 [3]?
Its EC50 is 7.55 µM (inconclusive).

What about the EC50 [4] of the same molecule?
The EC50 was < 0.1 µM (active).

And the EC50 [5]?
Its EC50 is 7.56 µM (active).

What about the EC50 (BJ [6]) of the same molecule?
The EC50 was 5.06 µM (active).

What about the EC50 (BJ [7]) of the same molecule?
Its EC50 is 3.81 µM (active).

And the EC50 [8]?
The EC50 was 2.41 µM (active).

What about the EC50 (BJ [9]) of the same molecule?
The EC50 was < 0.104 µM (active).

What about the EC50 [10] of the same molecule?
The EC50 was > 12 µM (not active).

With CC(C(=O)c1ccc(Br)cc1)[n+]1cccc2ccccc21 (configuration not stated) as the molecule, how does the EC50 (Troponin, cardiac muscle) read?
Its EC50 is 15.2 µM (inactive).

For CN(C)NC(=O)c1ccc([N+](=O)[O-])s1, which EC50 (Troponin, cardiac muscle) is on record?
The EC50 was > 71.4 µM (inactive).

For Cc1cc(C)n2nc(SCC(=O)Nc3ccc(F)cc3)nc2n1, which IC50 (Coagulation factor XII) is on record?
Its IC50 is > 50 µM (inactive).

With CC(=O)NNC(=S)NC(=O)c1ccccc1 as the molecule, how does the IC50 (Coagulation factor XII) read?
The IC50 was > 50 µM (inactive).

And the IC50 (Prothrombin)?
The IC50 was > 50 µM (inconclusive).

For Cn1cccc1/C=C1\CC(C(C)(C)C)C/C(=C\c2cccn2C)C1=O (configuration not stated), which AC50 (HEK293) is on record?
The AC50 was 160 µM (active).

For CN=C(S)N1N=C(c2ccc(Br)cc2)CC1c1ccc(Br)cc1 (configuration not stated), which IC50 (Beta-galactosidase) is on record?
Its IC50 is > 80 µM (inactive).

And the EC50 [11]?
The EC50 was > 60 µM (not active).

And the EC50 [12]?
Its EC50 is > 2.94 µM (active).

And the EC50 [13]?
The EC50 was 1.64 µM (active).

What about the EC50 [14] of the same molecule?
Its EC50 is > 8.82 µM (not active).

And the EC50 [15]?
The EC50 was > 26.5 µM (not active).

Which results are given for CC[C@](C)(O)C(=O)O[C@H]1C(=O)O[C@@H]2C[C@H]3C(C)=C[C@H](O)[C@@H](O)[C@]3(C)[C@H]3[C@@]4(O)OC[C@]32[C@@H]1[C@@H](C)[C@H]4O?
GI50 (P388/ADR): 88.5 µM (inactive); GI50 (P388): 45.3 µM (inactive); GI50 (SN12K1): 7.19 µM (inactive)

What does the source list for O=C(NCc1cccnc1)c1ccc(NC(=O)c2ccc(Br)cc2)cc1?
EC50 (BJ [1]): > 150 µM (not active); EC50 [3]: > 150 µM (not active); AC50 [16]: 1.36 µM (active); EC50 (BJ [6]): 1.3 µM (inconclusive); EC50 (BJ [7]): 14 µM (active); EC50 (BJ [9]): 0.169 µM (active)
